Measured values as given in patent US6545033B1, “Fused 1-(2,6-dichloro-4-trifluoromethylphenyl)-pyrazoles, the synthesis thereof and the use thereof as pesticides” (3-Dimensional Pharmaceuticals, Inc., priority 1999, dated 2003).

Legend:
[1] = tested on: cat fleas (Ctenocephalides felis), NC Fleas; assay: In vivo cat flea contact assay, NC fleas; details: contact with treated filter disk in vial, about 24-30 hours; mM = concentration of the DMSO solution, about 1 μL applied
Experimental: This example describes an in vivo assay to screen compounds for their ability to kill cat fleas via contact.
Test compounds were dissolved in dimethylsulfoxide (DMSO) at concentrations ranging from about 0.05 mM to about 100 mM. About 1 μL of dissolved test compound was dispensed onto a 6 mm (diameter) GF/C filter disk (filter material available from Whatman Inc., Clifton, N.J.) in the bottom of a 4 mL screw-top glass vial and allowed to air dry 24-48 hours. Positive control vials were prepared in the same manner except that no test compounds were dissolved in the DMSO. About 20 newly emerged cat fleas (Ctenocephalides felis) were sedated by refrigeration at 0-4° C. and transferred to each vial. Each vial was sealed with a thin, perforated Teflon™ septum secured by an open top screw cap and held vertically in the dark. After about 24-30 hours, the healthy, moribund, and dead cat fleas in each vial were counted. The percentage of dead cat fleas in each vial was then calculated using the formula M=100(D−(FC/100))/(F−(FC/100)), in which M is the percentage of dead cat fleas due to the addition of the test compound, D is the number of dead cat fleas in the test vial, F is the total number of cat fleas in the test vial, and C is the percentage of dead cat fleas in the control vials.

[2] = target: Mouse Brain GABA Receptors; assay: In vitro assay of binding to mouse brain GABA receptors (3H-EBOB displacement, mouse brain membranes); details: displacement of 5.2 nM 3H-EBOB, about 45 min at about 24° C.
Experimental: Mouse brains were obtained from carbon dioxide-asphyxiated Swiss-Webster mice, washed with phosphate-buffered saline, and used either fresh or after storage at −80° C. for up to 10 months. Unless specified, all preparation steps were performed at 0-4° C. For each preparation, 20 brains were suspended in about 40 mL of 0.32 M sucrose and homogenized for about 2 minutes, using a Tissumizer™ homogenizer equipped with a SDT-100EN probe (available from Tekmar-Dohrmann, Cincinnati, Ohio) running at 50% of its maximum speed. The extract was centrifuged for about 5 min at about 1000×g to pellet intact brain tissue. The supernatant was retained and the pellet washed with an additional 40 mL of 0.32 M sucrose and centrifuged at 1000×g for about 5 minutes. The 1000×g supernatants were combined and centrifuged at about 10,000×g for about 20 min to pellet membranes. The 10,000×g supernatant was discarded and the pellet was resuspended in about 20 mL of water containing 1 mM EDTA. The sample was dialyzed two times for about 3 hours each against about 3 L of water. The sample was then centrifuged at about 25,000×g for about 30 min to pellet the membranes. After centrifugation, the supernatant was discarded and the wet pellet recovered. The protein concentration of the pellet was determined by the Bio-Rad Protein Assay (available from Bio-Rad Laboratories, Hercules, Calif.) using bovine serum albumin as a standard. The membranes were aliquoted and stored at −80° C. for up to 6 months before use.
Mouse brain membranes were prepared as described above from dissected mouse brains. Test compounds were dissolved in dimethylsulfoxide (DMSO) at concentrations ranging from about 2 nM to about 100 mM. About 1 μL of a dissolved test compound was dispensed into a well of a 96-well polystyrene plate. About 100 μL of ice cold assay buffer (10 mM phosphate, 300 mM NaCl, pH 7.5) containing 5.2 nM 4′-Ethynyl-4-n-[2,3-^3H2]propylbicycloorthobenzoate (^3H-EBOB, 38 Ci/mmol, available from NEN Life Science Products, Boston, Mass.) was added to the well, followed by about 100 μL of ice cold assay buffer containing about 0.25-0.5 mg/mL mouse brain membranes. Control wells were prepared the same way except that the mouse brain membranes were omitted from the “negative” wells, and the test compounds were omitted from the “positive” wells. The samples were incubated for about 45 min at about 24° C. and then filtered on a 0.1% (w/v) polyethylenimine-soaked glass fiber Filtermat A (available from EG&G Wallac Inc., Gaithersburg, Md.) followed by four 100 mL rinses of cold assay buffer using a Harvester 96® cell harvester (available from Tomtec, Orange, Conn.). The filtermat was air dried and radioactivity bound to the filtermat was detected with either a 1450 MicroBeta® Trilux scintillation counter (available from EG&G Wallac Inc.) or a Topcount NXT™ scintillation counter (available from Packard Instrument Co., Meriden, Conn.) using standard methods.
Specific binding was considered to be the difference between total ^3H bound to the mouse brain membranes in the absence of any inhibitors and nonspecific ^3H bound to the mouse brain membranes upon the addition of 5 μM unlabeled EBOB. The average radioactivity contained in the “negative” wells was subtracted from each of the assay wells. […] Compounds that displaced ^3H-EBOB specifically bound to the mouse brain membranes were tested at 24-48 different final concentrations, varying from about 1 nM to about 125 μM, in order to determine the concentration at which 50% of the maximum inhibition due to the addition of that compound was observed (IC50). […]

[3] = tested on: houseflies (Musca domestica); assay: In vivo housefly contact assay; details: contact in coated glass test tube, about 24 hours; mM = concentration of the DMSO solution, about 1 μL applied
Experimental: This example describes an in vivo assay to screen compounds for their ability to kill houseflies via contact. Newly emerged houseflies (Musca domestica, available from Rincon-Vitova Insectaries, Inc., Ventura, Calif.) were sedated with carbon dioxide gas, collected in 50 mL polypropylene conical tubes containing filter paper saturated with 10% (w/w) sucrose in water, and allowed to feed at room temperature for about 2-4 hours. Test compounds were dissolved as in dimethylsulfoxide (DMSO) at concentrations ranging from about 0.05 mM to about 100 mM. About 1 μL of dissolved test compound and about 100 μL of isopropanol were dispensed into the bottom of a 9 mL screw-top glass test tube. Positive control test tubes were prepared in the same manner except that no test compounds were dissolved in the DMSO. Each test tube was rolled to coat the sides with the chemical solution, and allowed to air dry 24-48 hours. About 20 houseflies were sedated by refrigeration at 0-4° C. and transferred to each test tube. Each test tube was sealed with organdy cloth secured by an open top screw cap and laid horizontally in the dark. After about 24 hours, the healthy, moribund, and dead houseflies in each test tube were counted. The percentage of dead houseflies in each test tube was then calculated using the formula M=100(D−(FC/100))/(F−(FC/100)), in which M is the percentage of dead houseflies due to the addition of the test compound, D is the number of dead houseflies in the test tube, F is the total number of houseflies in the test tube, and C is the percentage of dead houseflies in the control test tubes.

[4] = tested on: cat fleas (Ctenocephalides felis), CO Fleas; assay: In vivo cat flea contact assay, CO fleas; details: Ctenocephalides felis, topical; contact with treated filter disk in vial, about 24-30 hours; mM = concentration of the DMSO solution, about 1 μL applied; read-out: LD50 (mM), CO Fleas
Method in brief: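 Compound in DMSO (0.05–100 mM stock), ~1 μL dried 24–48 h on GF/C disk in sealed glass vial; ~20 newly emerged fleas added after cold sedation, held in dark. Healthy, moribund and dead fleas counted after ~24–30 h; percent mortality corrected for DMSO-only control vials.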

Structure (SMILES) | LD50 (mM), NC Fleas [1] [mM] | IC50 [2] [nM] | LD50 (mM), Flies [3] [mM] | LC50 [4] [mM]
FC(F)(F)c1cc(Cl)c(-n2cc3c(n2)CSC3)c(Cl)c1 [Compound 3, 2-[2,6-Dichloro-4-(trifluoromethyl)phenyl]-4,6-dihydrothieno-[3,4-c]pyrazole] | 3.0 | 2000 | 2.7 | 1.7
FC(F)(F)c1cc(Cl)c(-n2cc3c(n2)CCC3)c(Cl)c1 [Compound 11, 2-[2,6-Dichloro-4-(trifluoromethyl)phenyl]-2,4,5,6-tetrahydrocyclopenta[c]pyrazole] | 7 | 1600 | >100 | 8
FC(F)(F)c1cc(Cl)c(-n2cc3c(n2)CCCCC3)c(Cl)c1 [Compound 15, 2-[2,6-Dichloro-4-(trifluoromethyl)phenyl]-2,4,5,6,7,8-hexahydrocyclohepta[c]pyrazole] | 33.5 | 30000 | >100 | 29.5
